Laboratory results as given in patent publication US20090137565A1, “Method for treatment of movement disorders” (The Trustees of Columbia University in the City of New York, priority 2004, published 2009).

Legend:
[1] = Twenty-patient trial: side effects and tolerability; format: in vivo, human; conditions: twenty patients
Text: Twelve men and 8 women enrolled. Results from patients #6, and #s 1, 2, 7, 12, and 13 were reported previously. Frucht, S. J., et al. Mov Disord 20:745-51 (2005); Frucht, S. J., et al. Mov Disord 20:1330-7 (2005). Mean age/symptom duration was 43.9 yrs/12.3 yrs (myoclonus) and 71.2 yrs/26.7 yrs (ET). Patients with myoclonus were examined and videotaped at each visit using the Unified Myoclonus Rating Scale (UMRS), and patients with ET were examined and videotaped using the modified Washington Heights Inwood Genetic Essential Tremor Rating Scale (WHIGET; Appendix 1). Frucht, S. J., et al. Mov Disord 20:1330-7 (2005). After initial baseline examination and videotaping, patients took 1 gm of sodium oxybate by mouth (2 ml of the standard 0.5 gm/ml solution dissolved in 60 ml of water), and one hour later the videotaped examination was repeated. Patients were maintained on a dose of 1 gm T.I.D. (taken before meals) until their next office visit two weeks later, when the examination and videotaping were repeated one hour after receiving 1.5 gm of sodium oxybate. Subsequent visits and dose titrations at two-week intervals were repeated until the maximum dose was reached (3 gm T.I.D), patients were satisfied with the results of treatment, or until they developed side effects that they viewed as troublesome. Dosing for patients #1, 2, 6, 7, 12, and 13 was slightly different (1 gm BID, with dose increments of 2 gm to maximum dose of 4 gm BID), but office visits and videotaping protocol were otherwise identical.

[2] = test system: ethanol-responsive myoclonus (PHM, MD); experiment: Five-patient open-label trial of sodium oxybate, blinded UMRS (patients #1-3); format: in vivo, human; conditions: for UMRS section 2 (myoclonus at rest) score: range 0-128; for UMRS section 1 (patient questionnaire) score: range 0-44; for UMRS section 6 (global disability score): range 0-4; for UMRS section 3 (stimulus sensitivity) score: range 0-17; for UMRS section 5 (functional tests) score: range 0-20, 0 gm score 20; for UMRS section 4 (myoclonus with action) score: range 0-160; for UMRS section 5 (functional tests, modified) score: range 0-28
Text: Five patients were enrolled in a trial from the Movement Disorders Division of Columbia University Medical Center during the fall of 2004. All patients were afflicted with hyperkinetic movement disorders that responded to ethanol (defined as a noticeable change to the patient), and all were refractory to treatment with conventional medications or could not tolerate them. The Medical Center's Institutional Review Board approved the trial, and written and verbal informed consent were obtained from all patients prior to enrollment.
The dose and timing of all other drugs were kept constant throughout the trial, and patients were not withdrawn from other medications. Patients #1-3 were examined and videotaped using the Unified Myoclonus Rating Scale (UMRS), and patients #4 and 5 were examined and videotaped using the Washington Heights Inwood Tremor Rating Scale (WHIGET) (see Appendix I). Frucht S. J., et al. Adv Neurol 89:361-76 (2002); Louis, E. D., et al. Mov Disord 16:89-93 (2001).
Side effects were defined as either minor or serious (leading to hospitalization) using good clinical practice standards (www.who.int/medicines/library/par/ggcp/GCPGuidePharmatrials), and patients were asked to report side effects at each visit. After initial examination and videotaping, patients were given 1 gm of sodium oxybate by mouth (2 ml of the standard 0.5 gm/ml solution dissolved in 60 ml of water). One hour later, the senior author repeated the examination and videotaping. […] After two weeks taking 2 gm twice daily, the procedure was repeated after a 3 gm office dose, and finally two weeks after receiving 3 gm twice daily, the procedure was repeated after a 4 gm office dose. The maximum dose allowed in the trial was 4 gm twice daily. Patients and the senior author determined at each visit whether or not to proceed to the next dose level, based principally on their ability to tolerate the most recent dose regimen. After deciding on a maximum tolerated dose, patients received a dose in the office 0.5 gm less and the examination was videotaped.
The entire videotape segments and patient-writing samples from each visit were copied, and were blinded to trial order and identifying features, and were randomly ordered for review using a random number table. A movement disorder expert blinded to trial design and dose schedule, scored each videotape. Sub-scores for each visit were calculated as described previously. Frucht S. J., et al. Adv Neurol 89:361-76 (2002). We modified section 5 of the UMRS in which functional performance (pouring water, using a soup spoon) is performed only with the dominant arm (section V). […] This increased the maximum score of section 5 of the UMRS from 20 to 28.

[3] = metabolized to carbon dioxide and water; cited from earlier work
[4] = patient 1, listed as sodium oxybate, monosodium salt
[5] = patient 2, 2.5 gm, 0 gm score 4

Compound: O=C([O-])CCCO.[Na+] [GHB, 4-hydroxybutanoic acid monosodium salt]
- dose titration limited by ataxia [1]: 20%
- dose titration limited by sedation [1]: 60%
- mild, transient side effect: dizziness [1]: 35%
- mild, transient side effect: emotionality [1]: 20%
- mild, transient side effect: headache [1]: 20%
- mild, transient side effect: nausea [1]: 10%
- tolerability of daytime dosing [1]: acceptable
- UMRS section 2 (myoclonus at rest) score ([2]; patient 1 1 gm, 0 gm score 3): 3
- UMRS section 1 (patient questionnaire) score ([2]; patient 1 3 gm, 0 gm score 33): 31
- UMRS section 6 (global disability score) ([2]; patient 1, 1 gm, 0 gm score 4): 3
- UMRS section 3 (stimulus sensitivity) score ([2]; patient 1, 1 gm, 0 gm score 8): 3
- UMRS section 5 (functional tests) score ([2]; patient 1, 1 gm): 20
- UMRS section 4 (myoclonus with action) score ([2]; patient 1, 1 gm, 0 gm score 108): 96
- UMRS section 6 (global disability score) ([2]; patient 1, 2 gm, 0 gm score 4): 3
- UMRS section 3 (stimulus sensitivity) score ([2]; patient 1, 2 gm, 0 gm score 8): 1
- UMRS section 5 (functional tests) score ([2]; patient 1, 2 gm): 13
- UMRS section 2 (myoclonus at rest) score ([2]; patient 1, 2 gm, 0 gm score 3): 0
- UMRS section 4 (myoclonus with action) score ([2]; patient 1, 2 gm, 0 gm score 108): 64
- UMRS section 6 (global disability score) ([2]; patient 1, 2.5 gm, 0 gm score 4): 2
- UMRS section 3 (stimulus sensitivity) score ([2]; patient 1, 2.5 gm, 0 gm score 8): 2
- UMRS section 5 (functional tests) score ([2]; patient 1, 2.5 gm): 12
- UMRS section 2 (myoclonus at rest) score ([2]; patient 1, 2.5 gm, 0 gm score 3): 0
- UMRS section 4 (myoclonus with action) score ([2]; patient 1, 2.5 gm, 0 gm score 108): 54
- UMRS section 2 (myoclonus at rest) score ([2]; patient 1, 3 gm (asthma exacerbation visit), 0 gm score 3): 3
- UMRS section 6 (global disability score) ([2]; patient 1, 3 gm, 0 gm score 4): 3
- UMRS section 3 (stimulus sensitivity) score ([2]; patient 1, 3 gm, 0 gm score 8): 3
- UMRS section 5 (functional tests) score ([2]; patient 1, 3 gm): 15
- UMRS section 4 (myoclonus with action) score ([2]; patient 1, 3 gm, 0 gm score 108): 86
- Rx effect, UMRS section 4 (action myoclonus improved by) [2, 4]: 50%
- Rx effect, UMRS section 5 (functional performance improved by) [2, 4]: 40%
- Rx effect, UMRS section 4 ([2]; patient 2 (table b)): 88%
- UMRS section 6 (global disability score) ([2]; patient 2, 1 gm, 0 gm score 1): 1
- UMRS section 3 (stimulus sensitivity) score ([2]; patient 2, 1 gm, 0 gm score 4): 2
- UMRS section 5 (functional tests, modified) score ([2]; patient 2, 1 gm, 0 gm score 10): 8
- UMRS section 2 (myoclonus at rest) score ([2]; patient 2, 1 gm, 0 gm score 4): 2
- UMRS section 4 (myoclonus with action) score ([2]; patient 2, 1 gm, 0 gm score 25): 29
- UMRS section 6 (global disability score) ([2]; patient 2, 2 gm, 0 gm score 1): 1
- UMRS section 3 (stimulus sensitivity) score ([2]; patient 2, 2 gm, 0 gm score 4): 2
- UMRS section 5 (functional tests, modified) score ([2]; patient 2, 2 gm, 0 gm score 10): 4
- UMRS section 2 (myoclonus at rest) score ([2]; patient 2, 2 gm, 0 gm score 4): 3
- UMRS section 4 (myoclonus with action) score ([2]; patient 2, 2 gm, 0 gm score 25): 9
- UMRS section 6 (global disability score) ([2]; patient 2, 2.5 gm, 0 gm score 1): 1
- UMRS section 3 (stimulus sensitivity) score [2, 5]: 0
- UMRS section 5 (functional tests, modified) score ([2]; patient 2, 2.5 gm, 0 gm score 10): 4
- UMRS section 2 (myoclonus at rest) score [2, 5]: 0
- UMRS section 4 (myoclonus with action) score ([2]; patient 2, 2.5 gm, 0 gm score 25): 3
- UMRS section 6 (global disability score) ([2]; patient 2, 3 gm, 0 gm score 1): 1
- UMRS section 3 (stimulus sensitivity) score ([2]; patient 2, 3 gm, 0 gm score 4): 0
- UMRS section 5 (functional tests, modified) score ([2]; patient 2, 3 gm, 0 gm score 10): 5
- UMRS section 2 (myoclonus at rest) score ([2]; patient 2, 3 gm, 0 gm score 4): 0
- UMRS section 4 (myoclonus with action) score ([2]; patient 2, 3 gm, 0 gm score 25): 11
- Rx effect, UMRS section 5 (functional performance improved by) ([2]; patient 2, listed as sodium oxybate, monosodium salt): 60%
- Rx effect, UMRS section 4 ([2]; patient 3 (table c)): 57%
- UMRS section 6 (global disability score) ([2]; patient 3, 1 gm, 0 gm score 1): 1
- UMRS section 3 (stimulus sensitivity) score ([2]; patient 3, 1 gm, 0 gm score 6): 2
- UMRS section 5 (functional tests, modified) score ([2]; patient 3, 1 gm, 0 gm score 12): 13
- UMRS section 2 (myoclonus at rest) score ([2]; patient 3, 1 gm, 0 gm score 15): 13
- UMRS section 4 (myoclonus with action) score ([2]; patient 3, 1 gm, 0 gm score 35): 25
- UMRS section 6 (global disability score) ([2]; patient 3, 2 gm, 0 gm score 1): 1
- UMRS section 3 (stimulus sensitivity) score ([2]; patient 3, 2 gm, 0 gm score 6): 3
- UMRS section 5 (functional tests, modified) score ([2]; patient 3, 2 gm, 0 gm score 12): 9
- UMRS section 2 (myoclonus at rest) score ([2]; patient 3, 2 gm, 0 gm score 15): 15
- UMRS section 4 (myoclonus with action) score ([2]; patient 3, 2 gm, 0 gm score 35): 26
- UMRS section 6 (global disability score) ([2]; patient 3, 4 gm, 0 gm score 1): 1
- UMRS section 3 (stimulus sensitivity) score ([2]; patient 3, 4 gm, 0 gm score 6): 1
- UMRS section 5 (functional tests, modified) score ([2]; patient 3, 4 gm, 0 gm score 12): 12
- UMRS section 1 (patient questionnaire) score ([2]; patient 3, 4 gm, 0 gm score 10): 5
- UMRS section 2 (myoclonus at rest) score ([2]; patient 3, 4 gm, 0 gm score 15): 10
- UMRS section 4 (myoclonus with action) score ([2]; patient 3, 4 gm, 0 gm score 35): 15
- Rx effect, UMRS section 5 (functional performance improved by) ([2]; patient 3, listed as sodium oxybate, monosodium salt): 25%
- Patient self-assessment scores ([2]; patient #1): unchanged
- writing and control of spoon ([2]; patient #1, one hour after 2.5 gm): able to write (although slowly) and their control of the spoon was improved
- myoclonic jerks on writing, pouring, using a spoon ([2]; patient #2, after 3 gm): the amplitude and frequency of the jerks was diminished
- walking ([2]; patient #3, after 4 gm): modestly improved
- Patient self-assessment scores ([2]; patients #2 and 3): improved
- Physician global assessment scores (UMRS part 6) ([2]; patients #2 and 3, mild (1 out of 4) throughout): remained unchanged
- Action myoclonus (section 4) improved by ([2]; second of patients #1-3 'respectively' in the text (patient #2)): 57%
- Action myoclonus (section 4) improved by ([2]; third of patients #1-3 'respectively' in the text (patient #3)): 88%
- active metabolites [3]: has no active metabolites
